# Molecular target: T1, Peroxisome proliferator-activated receptor gamma (Homo sapiens, UniProt P37231)
# T1 sequence (P37231 whole entry): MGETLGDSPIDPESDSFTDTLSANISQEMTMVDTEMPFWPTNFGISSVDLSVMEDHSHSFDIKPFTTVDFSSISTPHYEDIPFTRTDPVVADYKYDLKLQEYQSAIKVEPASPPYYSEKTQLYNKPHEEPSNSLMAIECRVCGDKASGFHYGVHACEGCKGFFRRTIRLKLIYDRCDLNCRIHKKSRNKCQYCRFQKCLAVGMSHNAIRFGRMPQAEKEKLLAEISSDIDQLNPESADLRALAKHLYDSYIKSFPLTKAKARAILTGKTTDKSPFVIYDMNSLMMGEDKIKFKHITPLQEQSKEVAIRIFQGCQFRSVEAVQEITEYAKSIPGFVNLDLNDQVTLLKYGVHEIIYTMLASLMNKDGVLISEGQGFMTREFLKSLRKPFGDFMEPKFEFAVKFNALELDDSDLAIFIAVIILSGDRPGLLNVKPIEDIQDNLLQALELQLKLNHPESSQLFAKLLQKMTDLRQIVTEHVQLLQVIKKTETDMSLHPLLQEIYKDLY
# Assay: PPARg ligand-binding domain binders, dose response, PPARg partial agonist project, biochemical, TR-FRET, LanthaScreen (AID 504446)
row,IC50,Compound
1,2.6 µM,Cc1ccc2nc(N3C(=O)C(=O)C(C(=O)c4ccc(C)o4)C3c3ccco3)sc2c1 (centres undefined)
2,1.2 µM,COc1ccc2nc(N3C(=O)C(=O)C(C(=O)c4ccco4)C3c3ccc(C)o3)sc2c1 (centres undefined)
3,8.2 µM,"CCOc1ccc2nc(N3C(=O)C(=O)C(C(=O)c4ccco4)C3c3ccco3)sc2c1 (centres undefined) [1-(6-ethoxy-1,3-benzothiazol-2-yl)-2-(2-furanyl)-3-[2-furanyl(oxo)methyl]-4-hydroxy-2H-pyrrol-5-one]"
4,14 µM,"Cc1ccc2nc(N3C(=O)C(=O)C(C(=O)c4ccco4)C3c3ccc(C)o3)sc2c1 (centres undefined) [3-[2-furanyl(oxo)methyl]-4-hydroxy-1-(6-methyl-1,3-benzothiazol-2-yl)-2-(5-methyl-2-furanyl)-2H-pyrrol-5-one;oxalic acid]"

# From BindingDB's records for doi:10.7270/Q2V40SP7 (The Scripps Research Institute Molecular Screening Center, 2011)
